Results taken from PubChem BioAssay AID608 (Sanford-Burnham Center for Chemical Genomics, 2007).
Active and inactive are the calls of the source. The rule behind the calls is not given here.

target: Peptidyl-prolyl cis-trans isomerase FKBP1A (Homo sapiens) (UniProt P62942); assay: FKBP12 binders, biophysical, NMR detection (AID 608); conditions: NMR binding, purified FKBP12
Sequence (P62942 whole entry, looked up): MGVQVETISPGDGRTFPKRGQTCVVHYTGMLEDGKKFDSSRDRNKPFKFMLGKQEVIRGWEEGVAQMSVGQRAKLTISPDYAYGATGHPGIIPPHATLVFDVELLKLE

| SMILES | Kd |
| --- | --- |
| NC1=C([N+](=O)[O-])C(=O)c2ccccc21 | > 4 mM (inactive) |
| Cc1cc(=O)oc2cc3c(cc12)OCCO3 | > 4 mM (inactive) |
| CC(=O)Nc1cc(N2C(=O)C=CC2=O)ccc1Cl | > 4 mM (inactive) |
| O=C(O)CCc1c[nH]c2ccccc12 | > 4 mM (inactive) |
| Cc1cc(Cl)ccc1OC(C)C(=O)N1CCOCC1 (stereo not drawn) | inactive |
| COc1ccc(CN2CCNC(=O)C2CC(=O)O)cc1C (stereo not drawn) | > 4 mM (inactive) |
| OCc1sccc1-n1cccc1 | > 4 mM (inactive) |
| Cc1c(CO)cnn1-c1ccccc1 | > 4 mM (inactive) |
| Cc1nn2c(nc1=O)SCC2(O)c1ccccc1 (stereo not drawn) | > 4 mM (inactive) |
| CCOC(=O)c1cc2ccccc2oc1=O | > 4 mM (inactive) |
| CN1CCC(NC(=O)c2c(F)cccc2Cl)CC1 | > 4 mM (inactive) |
| O=c1cc(-c2ccc(O)cc2)[nH]c(=S)[nH]1 | > 4 mM (inactive) |
| CC1CN=C(Nc2ccccc2)S1 (stereo not drawn) | > 4 mM (inactive) |
| Cc1ccc(NC(=O)/C=C2\SC(=O)NC2=O)cc1 | > 4 mM (inactive) |
| O=C(O)C1CC2CC1CCC2O (stereo not drawn) | > 4 mM (inactive) |
| O=C1CSC(=O)N1CN1CCCC1 | > 4 mM (inactive) |
| Cc1nn(-c2ccccc2)nc1CO | > 4 mM (inactive) |
| Cc1ccc(CCC(N)=O)o1 | > 4 mM (inactive) |
| O=C(O)c1csc(-c2ccccc2)n1 | > 4 mM (inactive) |
| NCc1nnnn1-c1ccccc1 | > 4 mM (inactive) |
| O=C1CCC(=O)N1c1cccnc1 | > 4 mM (inactive) |

| SMILES | Kd |
| --- | --- |
| NS(=O)(=O)c1ccc(F)cc1 | > 4 mM (inactive) |
| CCOC(=O)C(C)c1n[nH]c(=O)c2ccccc12 (stereo not drawn) | > 4 mM (inactive) |
| O=C(Nc1ccccc1Cl)c1cnccn1 | > 4 mM (inactive) |
| CC1(O)CC2C(CC1O)C2(C)C (stereo not drawn) | > 4 mM (inactive) |
| NC1=NN(c2ccccc2)C(=O)C1 | > 4 mM (inactive) |
| COC1C(O)C(O)C(O)[C@@H](O)C1O (stereo partly drawn) | > 4 mM (inactive) |
| CCN1C(=O)c2cccc3c(S(N)(=O)=O)ccc1c23 | > 4 mM (inactive) |
| COc1cc(/C=C/C(=O)O)ccc1O | > 4 mM (inactive) |
| COc1ccc(NC(=O)/C=N/O)cc1 | > 4 mM (inactive) |
| COCc1cc(C)nc2sc(C(=O)OC)c(N)c12 | > 4 mM (inactive) |
| Cc1scc(C(=O)Nn2cnnc2)c1-c1ccccc1 | > 4 mM (inactive) |
| CCc1ccc(/C=N/n2cnnc2)cc1 | > 4 mM (inactive) |
| CCOc1ccc(NS(=O)(=O)N2CCOCC2)cc1 | > 4 mM (inactive) |
| CN=C1SC(CC(=O)Nc2ccc(O)cc2)C(=O)N1C (stereo not drawn) | > 4 mM (inactive) |
| O=C1CC2OCC=C3CN4CC[C@]56c7ccccc7N1C5[C@H]2[C@H]3CC46 (stereo partly drawn) | > 4 mM (inactive) |
| NC(=O)CCN1C(=O)c2ccccc2C1=O | > 4 mM (inactive) |
| Cc1cc(C)n(-c2ccc(Cl)nn2)n1 | > 4 mM (inactive) |
| CC(=O)NC(=S)Nc1ccccc1C(N)=O | > 4 mM (inactive) |
| CC(C)n1c(Nn2cnnc2)nc2ccccc21 | > 4 mM (inactive) |
| COc1ccc(-c2cc(=O)c3cc(OC)ccc3o2)cc1 | > 4 mM (inactive) |
| O=C(NCCO)c1cc2ccccc2cc1O | > 4 mM (inactive) |

| SMILES | Kd |
| --- | --- |
| O=C(NCO)c1ccccc1Cl | > 4 mM (inactive) |
| Nc1cccc(-n2cccc2)c1 | > 4 mM (inactive) |
| Cc1cc(C(=O)Nc2sc3c(c2C#N)CCC3)no1 | > 4 mM (inactive) |
| O=C1c2ccccc2C(=O)c2c1ccc(O)c2O | > 4 mM (inactive) |
| O=C(Nc1ccccc1)N1CCOCC1 | > 4 mM (inactive) |
| CN1CN(Cc2ccccc2)CN/C1=N/[N+](=O)[O-] | > 4 mM (inactive) |
| CC(=O)Nc1ccc(NC(=O)c2ccnn2C)cc1 | > 4 mM (inactive) |
| Cc1nc(-c2ccc(NS(C)(=O)=O)cc2)cs1 | > 4 mM (inactive) |
| CCCCCCCCCCCC1=C(O)C(=O)C=C(O)C1=O | > 4 mM (inactive) |
| N[C@@H](CCC(=O)N[C@@H](CS)C(=O)NCC(=O)O)C(=O)O | > 4 mM (inactive) |
| Cn1c(=O)c2c(n(C)c1=O)=NC1(CCCCC1)N=2 | > 4 mM (inactive) |
| O=c1[nH]c(=O)c2[nH]cnc2[nH]1 | > 4 mM (inactive) |
| Cc1csc(NC(=O)c2cccs2)n1 | > 4 mM (inactive) |
| CSc1nc2[nH]ncc2c(=O)[nH]1 | > 4 mM (inactive) |
| O=C1C2C3C=CC(C3)C2C(=O)N1c1nccs1 (stereo not drawn) | > 4 mM (inactive) |
| CCNC(=S)NS(=O)(=O)c1ccccc1 | > 4 mM (inactive) |
| OCC1Cc2ccccc2N1 (stereo not drawn) | > 4 mM (inactive) |
| Cc1nc2[nH]onc2c2nccc(=O)c12 | > 4 mM (inactive) |
| NC(=O)c1cn(-c2ccccc2)nc1-c1cccnc1 | > 4 mM (inactive) |
| CC(=O)O[C@@H]1CC2C(C)(C)C=CC(=O)[C@]2(C)C2CC[C@@]3(C)[C@H](c4ccoc4)OC(=O)C4OC43[C@@]21C (stereo partly drawn) | > 4 mM (inactive) |
| Cn1c(O)c(C2=NC(=S)NC2=O)c2ccccc21 | > 4 mM (inactive) |
